What all share (experiment): NCI-60 cell line screen, 48 h
For assay [1], the system named is SR.
The test system of assay [2] is CCRF-CEM.
Assay [3] relates to M14.
The test system of assay [4] is Hs-578T.
Assay [5] relates to U-251.
Assay [6] deals with A498.
Assay [7] concerns BT-549.
Assay [8] deals with HCT-15.
The subject of assay [9] is DU-145.
The subject of assay [10] is HCT-116.
Assay [11] concerns NCI-H460.
The test system of assay [12] is NCI-H23.
Assay [13] deals with NCI-H226.
Assay [14] deals with 786-0.

SMILES strings stand for the structures.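 Briefly, cells in 96-well plates were exposed to five compound concentrations for 48 h, and endpoints were estimated by linear interpolation. GI50 marks 50% less growth.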 Activity calls are given as the source filed them. Rule as the data show it: active = GI50 up to about 1.1 µM and inactive = higher.

With `CC(C)(C)OC(=O)NC(Cc1ccc(OCc2ccccc2)cc1)C(=O)NC(COCc1ccccc1)C(=O)Oc1c(Cl)c(Cl)c(Cl)c(Cl)c1Cl` (stereo unspecified), the GI50 was 44.9 µM (inactive) in assay [1]; 55.2 µM (inactive) in assay [2]; 20.8 µM (inactive) in assay [3]; 17.7 µM (inactive) in assay [4]; 18 µM (inactive) in assay [5]; 23.1 µM (inactive) in [6]. Also, the GI50 in [7] is 20 µM (inactive); in assay [8] it was 17.8 µM; in assay [9] it was 14.8 µM (inactive); in [10], 16.4 µM (inactive); in [11], 17.6 µM (inactive); in assay [12], 17.2 µM (inactive). Also, the GI50 in assay [13] is 21.4 µM (inactive).

Take `CNc1ccc2c(c1)[C@@]1(C)c3ccccc3[C@@H](C2)N1C`: the GI50 in [1] was 22.6 µM (inactive); in assay [2] it was 20.4 µM (inactive); in assay [3] it was 21.6 µM (inactive); in [14] it was 17.4 µM (inactive); in [4], 29.7 µM (inactive); in assay [5] it was 20.4 µM (inactive). Also, the GI50 is 26.4 µM (inactive) in assay [6]; 17.6 µM (inactive) in assay [7]; 19 µM in [8]; 39.5 µM (inactive) in [9]; 16.1 µM (inactive) in assay [10]; 18.4 µM (inactive) in assay [11]. Moreover, the GI50 in assay [12] was 22.6 µM (inactive).

As to `O=P1(O)c2ccccc2CS(=O)(=O)Cc2ccccc21`, the GI50 in assay [2], in assay [3], in assay [14], in [4], in assay [5] and in assay [6] was > 100 µM (inactive) throughout. In addition, the GI50 in assay [7] was > 100 µM (inactive); in assay [8], above 100 µM; in assay [9], > 100 µM (inactive); in assay [10] it was > 100 µM (inactive); in assay [11], > 100 µM (inactive); in assay [12], > 100 µM (inactive). For the same molecule, the GI50 in assay [13] was > 100 µM (inactive).

Take `Cc1ccc(S(=O)(=O)NC(=O)NC(CCCCNC(=N)N)C(=O)O)cc1` (stereo unspecified): the GI50 in assay [1], in [2], in assay [3], in assay [14], in assay [4] and in [5] was > 100 µM (inactive) in each case. Further, the GI50 in assay [7] is > 100 µM (inactive); in assay [8], above 100 µM; in assay [9], > 100 µM (inactive); in [10] it was > 100 µM (inactive); in [11], > 100 µM (inactive); in assay [12], > 100 µM (inactive).

As to `Cc1nc2n(c1/C=C1/C(=O)Nc3cccc(Cl)c31)CCS2`, the GI50 in assay [1] was > 100 µM (inactive); in [2], 50.9 µM (inactive); in [3] it was > 100 µM (inactive); in [14], 40 µM (inactive); in [4], 22 µM (inactive); in assay [5], 17 µM (inactive). Moreover, the GI50 in [6] is 30 µM (inactive); in assay [7], 25.1 µM (inactive); in assay [8], 89.1 µM; in [9], 48.1 µM (inactive); in assay [10] it was 42.2 µM (inactive); in assay [11], > 100 µM (inactive). For the same molecule, in assay [12], the GI50 is 22 µM (inactive).

For the molecule `COC(=O)Cc1c([C@H]2[C@H](CC(=O)OC)c3ccccc3N2C(=O)C(F)(F)F)[nH]c2ccccc12`, the GI50 in assay [1] is 14.7 µM (inactive); in assay [2] it was 14.6 µM (inactive); in [14], > 100 µM (inactive); in assay [4] it was 22.8 µM (inactive); in assay [5], 13.6 µM (inactive); in assay [6], 90.2 µM (inactive). In addition, the GI50 in assay [7] is 27.6 µM (inactive); in assay [8], 8.18 µM; in assay [9], 63 µM (inactive); in assay [10], 15.5 µM (inactive); in assay [11], 22.4 µM (inactive); in assay [12], 25.2 µM (inactive). Also, the GI50 in [13] is 2 µM (inactive).

On to `O=CNCNCCO`, for which the GI50 in [1], in assay [2], in assay [3], in [14], in [4] and in [5] was > 100 µM (inactive) throughout. The GI50 in [6] was > 100 µM (inactive); in assay [7] it was > 100 µM (inactive); in assay [8] it was above 100 µM; in assay [9], > 100 µM (inactive); in assay [10], > 100 µM (inactive); in [11], > 100 µM (inactive). For the same molecule, the GI50 in assay [12] and in assay [13] was > 100 µM (inactive) in each case.

In the case of `O=C(N/N=C1\C(=O)Nc2ccc(Br)cc21)/C(O)=C/C(=O)c1ccc(Cl)cc1`, the GI50 in [1] was < 0.01 µM (active); in assay [3], > 100 µM (inactive); in assay [14] it was 37.7 µM (inactive); in assay [4] it was 30.2 µM (inactive); in [5] it was 43.6 µM (inactive); in assay [6] it was 26.8 µM (inactive). Further, the GI50 was 35.5 µM (inactive) in [7]; 64.4 µM in assay [8]; > 100 µM (inactive) in [9]; 47.1 µM (inactive) in [10]; > 100 µM (inactive) in [11]; 71.9 µM (inactive) in assay [12]. The GI50 in [13] is 75.2 µM (inactive).

Turning to `CC(C)Oc1cccc(N2C(n3ccnc3)=Nc3ccncc3S2(=O)=O)c1`, the GI50 is 3.78 µM (inactive) in assay [1]; 13.6 µM (inactive) in assay [3]; 10.4 µM (inactive) in assay [14]; 19 µM (inactive) in [4]; 15.4 µM (inactive) in assay [5]; 17.8 µM (inactive) in assay [6]. For the same molecule, the GI50 in assay [7] was 15.5 µM (inactive); in assay [8], 13.6 µM; in assay [9] it was 12.2 µM (inactive); in [10], 13.6 µM (inactive); in [11], 18.8 µM (inactive); in [12], 11.5 µM (inactive). Also, the GI50 in [13] is 21.7 µM (inactive).

Take `C(=C\Nc1ccc(Oc2ccccc2)cc1)/C=N/c1ccc(Oc2ccccc2)cc1`: the GI50 in [1] was 19.4 µM (inactive); in assay [2], 15.3 µM (inactive); in assay [14] it was 16.6 µM (inactive); in [4], 19.9 µM (inactive); in [5] it was 19.1 µM (inactive); in assay [6] it was 16.2 µM (inactive). Also, the GI50 in assay [7] was 15.9 µM (inactive); in [8] it was 19.5 µM; in assay [9], 20.1 µM (inactive); in assay [10], 17.4 µM (inactive); in [11], 16.7 µM (inactive); in assay [12] it was 22.2 µM (inactive). Further, the GI50 in assay [13] is 55.3 µM (inactive).

Consider `CC(C)(CN1CCCCC1)C(=O)/C=C/c1c(Cl)cccc1Cl`, for which the GI50 was 0.42 µM (active) in [1]; 0.52 µM (active) in assay [2]; 0.863 µM (active) in [3]; 1.31 µM (inactive) in [14]; 2.17 µM (inactive) in [4]; 1.38 µM (inactive) in [5]. Further, the GI50 in [6] is 1.57 µM (inactive); in assay [7] it was 1.86 µM (inactive); in assay [8], 0.879 µM; in assay [9], 0.769 µM (active); in assay [10] it was 0.637 µM (active); in assay [11] it was 1.61 µM (inactive). Also, the GI50 in assay [12] was 1.35 µM (inactive); in [13], 2.65 µM (inactive).

`CC1(c2nc3ccccc3[nH]2)CCC(C#N)C(C)(C)O1` (stereo unspecified): the GI50 in assay [1], in [2], in assay [3], in [14], in assay [4] and in assay [5] was > 100 µM (inactive) in each case. Besides, the GI50 was > 100 µM (inactive) in [7]; above 100 µM in assay [8]; > 100 µM (inactive) in [9]; > 100 µM (inactive) in assay [10]; > 100 µM (inactive) in [12]; > 100 µM (inactive) in [13].

With `CCCCCCc1cc2cc(C(=O)Nc3nc(C45CC6CC(CC(C6)C4)C5)cs3)c(=O)oc2cc1O`, the GI50 is 5.6 µM (inactive) in [1]; 6.78 µM (inactive) in [2]; 12.1 µM (inactive) in assay [14]; 11.8 µM (inactive) in assay [4]; 11.6 µM (inactive) in [5]; 13.6 µM (inactive) in [6]. In addition, the GI50 in [7] was 23.8 µM (inactive); in assay [8], 3.85 µM; in assay [9], 22.1 µM (inactive); in [10] it was 3.56 µM (inactive); in [11], 5.16 µM (inactive); in assay [12], 5 µM (inactive). In assay [13], the GI50 was 19.1 µM (inactive).

In the case of `BrP(NC1CCCCCC1)(c1ccccc1)(c1ccccc1)c1ccccc1`, the GI50 was 3.88 µM (inactive) in assay [1]; 2.97 µM (inactive) in [2]; 12.4 µM (inactive) in assay [3]; 7.53 µM (inactive) in [14]; 3 µM (inactive) in assay [4]; 3.55 µM (inactive) in [5]. In addition, the GI50 is 0.986 µM (active) in [6]; 3.26 µM (inactive) in [7]; 18.8 µM in assay [8]; 8.26 µM (inactive) in assay [9]; 4.74 µM (inactive) in assay [10]; 1.33 µM (inactive) in [11]. For the same molecule, the GI50 is 5.12 µM (inactive) in assay [12] and 13.5 µM (inactive) in assay [13].

On to `CCCOC1OC(CS(=O)(=O)O)C(O)C(O)C1O` (stereo unspecified), for which the GI50 in assay [1], in assay [2], in [3], in assay [4], in assay [5] and in [6] was > 100 µM (inactive) throughout. For the same molecule, the GI50 in assay [7] is > 100 µM (inactive); in [8], above 100 µM; in assay [9] it was > 100 µM (inactive); in [10], > 100 µM (inactive); in [11], > 100 µM (inactive); in [12], > 100 µM (inactive). In addition, the GI50 in [13] is > 100 µM (inactive).

Consider `Cc1cnc2nc(-c3ccc4ccccc4c3)cc(O)c2c1`, for which the GI50 was 0.323 µM (active) in assay [2]; 0.547 µM (active) in assay [3]; 0.61 µM (active) in [14]; 0.449 µM (active) in [4]; 0.421 µM (active) in assay [6]; > 100 µM (inactive) in [7]. For the same molecule, the GI50 in assay [8] is 0.439 µM; in assay [9], 0.408 µM (active); in assay [12] it was 0.434 µM (active); in assay [13] it was 0.504 µM (active).

These data come from ChEMBL document CHEMBL1201862, “PubChem BioAssay data set” (2004).
